Test results reported in patent US4268678A, “4-(Arylaliphatic)isoxazoles” (Sterling Drug Inc., priority 1979, dated 1981).
≈ marks a conversion by molar mass, not a printed value.

Test system: herpes simplex virus type 2
Assay: in vitro antiviral testing against herpes simplex virus type 2 (MIC by standard serial dilution)
Type: cell-based
Settings: Human alphaherpesvirus 2, herpes simplex virus type 2 (herpes 2), read-out: minimal inhibitory concentration (MIC)
Method: They are useful in combatting viruses present on inanimate surfaces as well as viral infections in animal organisms. […] The MIC values were determined by standard serial dilution procedures.

| SMILES | MIC |
| --- | --- |
| CCc1noc(CC)c1CCCCCCOc1ccc(Br)cc1 [Example 6, 4-[6-(4-Bromophenoxy)hexyl]-3,5-diethylisoxazole] | 12 mg/L (≈ 31.6 µM) |
| CCc1noc(CC)c1CCCCCCCOc1ccc(OC)cc1Cl [Example 8, 4-[7-(2-Chloro-4-methoxyphenoxy)heptyl]-3,5-diethylisoxazole] | > 25 mg/L |
| CCc1noc(CC)c1Cc1ccc(OC)cc1Cl [Example 4, 4-[(2-Chloro-4-methoxyphenyl)methyl]-3,5-diethylisoxazole] | 12 mg/L (≈ 42.9 µM) |
| CCc1noc(CC)c1Cc1ccc(OC)cc1 [Example 3, 3,5-Diethyl-4-[(4-methoxyphenyl)methyl]isoxazole] | 25 mg/L (≈ 102 µM) |

Continued by falling MIC, values first:

| MIC | SMILES |
| --- | --- |
| 6 mg/L (≈ 16.4 µM) | CCc1noc(CC)c1CCCCCCOc1ccc(OC)cc1Cl [Example 1, 4-[6-(2-Chloro-4-methoxyphenoxy)hexyl]-3,5-diethylisoxazole] |
| 6 mg/L (≈ 17.8 µM) | CCc1noc(CC)c1CCCCOc1ccc(OC)cc1Cl [Example 7, 4-[4-(2-Chloro-4-methoxyphenoxy)butyl]-3,5-diethylisoxazole] |
| 3 mg/L (≈ 7.97 µM) | CCc1noc(CC)c1CCCCCCOc1ccc(OC)cc1[N+](=O)[O-] [Example 5, 3,5-Diethyl-4-[6-(4-methoxy-2-nitrophenoxy)hexyl]isoxazole] |
| 1.5 mg/L (≈ 6.54 µM) | CCc1noc(CC)c1Cc1ccc(C)cc1 [Example 2, 3,5-Diethyl-4-[(4-methylphenyl)methyl]isoxazole] |
